The values that follow are results of earlier work, collected in article PMC7247160, “Inhibitors of DNA Glycosylases as Prospective Drugs” (International Journal of Molecular Sciences, 2020).

Where two headings read alike, the source gives them in different places. A value given as a limit tells only on which side of the number the result lay.

For data set [1], the system named is UNG. Conditions: for IC50: UNG, human, read-out: I50.
In data set [2] the test system is Fpg. Conditions: E. coli.
Data set [3] relates to Fpg. Also noted: method as in PMID 25143530. Conditions: Lactococcus lactis, read-out: I50.
The subject of data set [4] is Fpg. Conditions: for Fpg inhibition (in words): free damaged base analogs.
The target of data set [5] is UNG.
Data set [6] deals with UNG. This is another data set of the same source.
Data set [7] deals with D4/A20 complex. To be noted: UNG (D4), vaccinia virus; read-out: IC50 for DNA polymerase activity in the presence of the D4/A20 complex.
The subject of data set [8] is OGG1. To be noted: OGG1, human; read-out: I50.
Data set [9] has as its system NEIL1. Conditions: NEIL1, human; read-out: I50.
In data set [10] the test system is NEIL2. Also noted: method as in PMID 23138988. To be noted: NEIL2, human; read-out: I50.
Data set [11] deals with NTHL1. Also noted: method as in PMID 23138988. Conditions: NTHL1, human; read-out: I50.
For data set [12], the system named is MPG. Also noted: method as in PMID 25650313. Conditions: human, read-out: I50.
The subject of data set [13] is MTH1. To be noted: MTH1, human; read-out: I50.
Data set [14] relates to OGG1. Also noted: method as in PMID 30442810. Conditions: OGG1, mouse; read-out: I50.
The test system of data set [15] is OGG1. Also noted: method as in PMID 30442810. Conditions: mouse model.
Data set [16] has as its system Nei2. Also noted: method as in PMID 28955788. To be noted: Nei2, Mycobacterium tuberculosis.
The target of data set [17] is MutY. Conditions: read-out: Kd or Ki directly measured.
The test system of data set [18] is UNG. Also noted: method as in PMID 23400284. Conditions: species not specified, read-out: I50.
The mark [19] stands for this setting: read-out: Kd or Ki directly measured.

As to `O=C(O)c1cccc(/C=N/OCC(CO/N=C/c2cc(=O)[nH]c(=O)[nH]2)CO/N=C/c2cc(=O)[nH]c(=O)[nH]2)c1`, the IC50 in data set [1] (triskelion inhibitors) is 0.9 µM.
On to `O=c1cc(/C=N/OCC(CO/N=C/c2ccc(O)c(O)c2)CO/N=C/c2cc(=O)[nH]c(=O)[nH]2)[nH]c(=O)[nH]1`, for which, in [1] (triskelion inhibitors), the IC50 is 0.9 µM.
In the case of 2-thioxanthine, the IC50 in data set [2] (read-out: I50) was 17 µM; in data set [3] it was 100 µM; in [4] (oxidizes zinc finger cysteines, not a true inhibitor, read-out: IC50, ability to suppress Fpg activity), 10 to 100 µM.
By Ki is commonly meant a dissociation constant, usually derived from enzyme kinetics or from competition with a known ligand. For the molecule `N#C[C@]1(n2ccc(=O)[nH]c2=O)C[C@H](O)[C@@H](COP(=O)(O)OP(=O)(O)OP(=O)(O)O)O1` [1′-cyano-2′-deoxyuridine triphosphate], the Ki result in data set [1] (human UNG, nucleotide incorporated into DNA) is “nanomolar”; in [5] (E. coli Ung, nucleotide incorporated into DNA), “nanomolar”.
With `CN(C=O)c1c(N)nc(N)[nH]c1=O` [2,6-diamino-4-oxo-5-(N-methylformamido)pyrimidine], the “Fpg inhibition (in words)” value in [4] is recorded as “weakly inhibited”.
For `Nc1cc(N)c(N=O)c(N)n1` [5-nitroso-2,4,6-triaminopyridine], in data set [4], the “Fpg inhibition (in words)” value was “weakly inhibited”.
For `Nc1cc(=O)[nH]c(N)c1N=O` [5-nitroso-4,6-diamino-2-oxopyridine], the “Fpg inhibition (in words)” value in data set [4] is recorded as “weakly inhibited”.
In the case of `CCCCCCCCc1ccc(Nc2cc(=O)[nH]c(=O)[nH]2)cc1` [C00001 R1 = n-octyl R2 = H, 6-(p-n-octylanilino)uracil], the IC50 in data set [6] (UNG, HSV1, read-out: I50) was 8 µM; in data set [6] (herpes simplex type 1 UNG, read-out: IC50 for the viral enzyme), around 8 µM; in [1], above 300 µM.
For the molecule `O=c1cc(/C=N/OCCCO/N=C/c2cc(O)c(O)cc2Br)[nH]c(=O)[nH]1` [C00002 R = Br], in [1] (bipartite inhibitors), the IC50 was 40 µM.
On to `O=c1cc(/C=N/OCCCO/N=C/c2cc(O)c(O)cc2Cl)[nH]c(=O)[nH]1` [C00002 R = Cl], for which, in [1] (bipartite inhibitors), the IC50 is 16 µM.
Turning to `O=c1cc(/C=N/OCCCO/N=C/c2cc(O)c(O)cc2F)[nH]c(=O)[nH]1` [C00002 R = F], the IC50 in data set [1] (bipartite inhibitors) is 2.7 µM.
On to `O=c1cc(/C=N/OCCCO/N=C/c2ccc(O)c(O)c2)[nH]c(=O)[nH]1` [C00002 R = H], for which the IC50 in data set [1] (bipartite inhibitors) is 1.1 µM.
For the molecule `O=c1cc(/C=N/OCCCO/N=C/c2cc(O)c(O)cc2[N+](=O)[O-])[nH]c(=O)[nH]1` [C00002 R = NO2], in [1] (bipartite inhibitors), the IC50 was 40 µM.
Regarding `O=c1cc(/C=N/OCCCO/N=C/c2cc(O)c(O)cc2O)[nH]c(=O)[nH]1` [C00002 R = OH], the IC50 in [1] (bipartite inhibitors) is 0.26 µM.
In the case of `O=C(O)c1cccc(C=NOCCON=Cc2cc(=O)[nH]c(=O)[nH]2)c1` [C00003 R1 = C00004 R2 = COOH, R3 = H], in [1] (bipartite inhibitors), the IC50 is 40 µM.
With `O=C(O)c1cccc(C=NOCCCNCc2cc(=O)[nH]c(=O)[nH]2)c1` [C00003 R1 = C00005 R2 = COOH, R3 = H], the IC50 in data set [1] (bipartite inhibitors) is 1.6 µM.
As for `O=C(O)c1cccc(CNCCCON=Cc2cc(=O)[nH]c(=O)[nH]2)c1` [C00003 R1 = C00006 R2 = COOH, R3 = H], in [1] (bipartite inhibitors), the IC50 is 100 µM.
With `O=C(O)c1cccc(CNCCCCNCc2cc(=O)[nH]c(=O)[nH]2)c1` [C00003 R1 = C00007 R2 = COOH, R3 = H], the IC50 in data set [1] (bipartite inhibitors) was 315 µM.
Consider `O=C(O)c1ccc(C=NOCCON=Cc2cc(=O)[nH]c(=O)[nH]2)cc1` [C00003 R1 = C00008 R2 = H, R3 = COOH], for which the IC50 in data set [1] (bipartite inhibitors) is 6 µM.
For the molecule `O=c1cc(/C=N/OCC(CO/N=C/c2ccc(O)c(O)c2)CO/N=C/c2ccc(O)c(O)c2)[nH]c(=O)[nH]1` [C00009 R1 = R2 = 3,4-dihydroxyphenyl], in data set [1] (triskelion inhibitors), the IC50 is 1.6 µM.
Regarding `O=C(O)c1cccc(/C=N/OCC(CO/N=C/c2cccc(C(=O)O)c2)CO/N=C/c2cc(=O)[nH]c(=O)[nH]2)c1` [C00009 R1 = R2 = 3-carboxyphenyl], the IC50 in [1] (triskelion inhibitors) is 1.7 µM.
As for `Oc1ccc(NCc2ccccc2OCc2ccccc2)cc1` [C00012], in data set [7], the IC50 is 5.1 µM.
For the molecule `NNC(=O)c1sc2cccc(Cl)c2c1Cl` [C00018], the IC50 in data set [8] was 0.22 µM.
With `O=C(NN=C1CCCCC1)c1cc2ccccc2cc1O` [C00022], in [8], the IC50 was 0.34 µM.
On to `NC(=O)c1cccc(-c2ccc(S(=O)(=O)Nc3ccc4c(c3)N(C(=O)C3CC3)CCC4)cc2)c1` [C00025], for which, in data set [8], the IC50 is 0.059 µM.
In the case of `CCn1cnc2c(Nc3cccc(C)c3)nc(N[C@@H]3CCCC[C@@H]3N)nc21` [C00027], in data set [9], the IC50 was 25 µM.
With `Cc1cc(/C=C/C#N)cc(C)c1Nc1nc(Nc2ccc3scnc3c2)c2nc[nH]c2n1` [C00028 R = C00029], the IC50 in data set [9] was 4 µM.
With `Cc1nc2ccc(Nc3nc(Nc4c(C)cc(/C=C/C#N)cc4C)nc4[nH]cnc34)cc2s1` [C00028 R = C00030], the IC50 in data set [9] was 7.9 µM.
Take `Cc1cc(/C=C/C#N)cc(C)c1Nc1nc(Nc2ccc3c(c2)CCC3)c2nc[nH]c2n1` [C00028 R = C00031]: in [9], the IC50 was 8.9 µM.
For `Cc1cc(/C=C/C#N)cc(C)c1Nc1nc(Nc2ccc3c(c2)OCO3)c2nc[nH]c2n1` [C00028 R = C00032], the IC50 in [9] was 10 µM.
Take `Nc1c(S(=O)(=O)O)cc(Nc2ccc(Nc3nc(Cl)nc(Nc4ccccc4S(=O)(=O)O)n3)c(S(=O)(=O)O)c2)c2c1C(=O)c1ccccc1C2=O` [Cibacron Blue F3GA]: the Ki in data set [2] (setting [19]) is 0.005 µM.
For the molecule `O=C(O)/C=C/C(=O)CC(=O)CC(=O)O` [Fumarylacetoacetate], the IC50 in [8] is 1 µM; in [9], 0.006 µM; in data set [10], 0.032 µM; in data set [11] it was 1 µM.
With `O=c1c(O)c(-c2ccc(O)cc2O)oc2cc(O)cc(O)c12` [Morin], the IC50 in data set [12] is 2.6 µM.
Consider `Cc1cnc(N)nc1CCCNC(=O)c1cccc(-c2ccc(S(=O)(=O)Nc3ccc4c(c3)N(C(=O)C3CC3)CCC4)cc2)c1` [SU0383], for which the IC50 in data set [13] is 0.034 µM; in data set [8], 0.49 µM.
On to `O=C(Nc1ccc(I)cc1)N1CCC(n2c(=O)[nH]c3c(Br)cccc32)CC1` [TH5487], for which the IC50 in [14] was 0.34 µM. In addition, in data set [15], the “Effect on inflammatory response” value is “downregulates the inflammatory response”.
As to `CCCCCc1cc(O)cc2c1Oc1cc(O)cc(C(=O)CCCC)c1C(=O)O2` [norlobaric acid], the IC50 in [16] (read-out: I50) was 42 µM. In addition, the Ki in [16] (setting [19]) is 0.074 µM.
One may read the Kd as the constant that tells how readily two partners part at equilibrium. Regarding `Cc1ccc(C(=O)Nc2ccc(S(=O)(=O)O)c3cc(S(=O)(=O)O)cc(S(=O)(=O)O)c23)cc1NC(=O)c1cccc(NC(=O)Nc2cccc(C(=O)Nc3cc(C(=O)Nc4ccc(S(=O)(=O)O)c5cc(S(=O)(=O)O)cc(S(=O)(=O)O)c45)ccc3C)c2)c1` [suramin], the Kd in [17] is 16 µM.
As for gentamicin, the IC50 in data set [18] is 1500 µM; in data set [5] (UNG, E. coli, read-out: I50), 420 µM.
